Results: US20100273661A1, “Methods and Kits for Predicting Treatment Response in Type II Diabetes Mellitus Patients” (SmithKline Beecham Corporation, priority 2007, published 2010)

Tests used:
Type in all cases: in vivo, human
male subjects with T2DM = assay: Eight week single-blind treatment study; responder defined by composite score of glycemic-lowering efficacy (FPG, fructosamine, HbA1c); conditions: responder = composite % reduction 1(%ΔFPG)+2(%ΔFructosamine)+1.5(%ΔHbA1c) greater than 30%, 8 weeks
Description: The study described herein was relatively small-scale (75 male subjects with T2DM) and short-term (8 weeks of treatment). Serum and urine samples were obtained at pre-treatment baseline, and after 4 and 8 weeks of treatment with one of the following: placebo, rosiglitazone, metformin or glyburide. High information content nuclear magnetic resonance (NMR) and liquid chromatography/mass spectroscopy (LC/MS)-based metabolomic platforms, including polar metabolite and lipid profiling, were used to profile the serum and urine samples. A variety of multivariate analysis techniques were used to determine whether polar low molecular weight metabolites, lipids, or fatty acids, analyzed in readily accessible fluids can be used to predict drug responder status at week 8 based on their measurement at baseline or at week 4.
Male subjects aged 30 to 70 years with a documented history of stable T2DM for no more than 10 years duration were eligible for the study described herein if they had been previously treated with diet and exercise alone, monotherapy or low-dose combination therapy. Fasting plasma glucose (FPG) at screening could not exceed 225 mg/dL for subjects treated with diet and exercise alone or 180 mg/dL for subjects receiving monotherapy or low-dose combination therapy. HbA1c was required to be within 5.7 to 10.0% with the following conditions; subjects with HbA1c between 5.7 and 9% must have been diabetic for less than 5 years and treated with mono or low dose combination therapy and have a FBG of 125 to 180 mg/dL, and subjects with HbA1c between 9.1 and 10.0% must not have been treated with combination therapy. In addition, body mass index must have been within the range of 25 to 37.5 kg/m^2, for subjects aged […] years, or 25 to 35.0 kg/m^2 for subjects aged 56 to 70 years. […]
Originally, efficacy response was defined as a FPG decrease of greater than 30 mg/dl. […] Fructosamine, whose half-life is determined by that of albumin, provides a measure of integrated glucose over a period of 2-4 weeks. […]

urine citrate = assay: Urine citrate measured by NMR at week 0 and week 8 in rosiglitazone responders and non-responders; conditions: week 8 vs week 0
Procedure: FIGS. 4A-4C show the measure of selected biomarkers in urine or serum.
Male subjects aged 30 to 70 years with a documented history of stable T2DM for no more than 10 years duration were eligible for the study described herein if they had been previously treated with diet and exercise alone, monotherapy or low-dose combination therapy. Fasting plasma glucose (FPG) at screening could not exceed 225 mg/dL for subjects treated with diet and exercise alone or 180 mg/dL for subjects receiving monotherapy or low-dose combination therapy. […]
Serum and urine samples were analyzed using various metabolomic platforms and with traditional serum biomarker (“non-omic”) measurements. Both urine and serum were measured by nuclear magnetic resonance (NMR)-based metabolic profiling. Serum samples were also analyzed by liquid chromatograph (LC)/mass spectrometry (MS) for polar metabolites and lipids, and gas chromatograph (GC)-flame ionization for fatty acids (lipidomics). […]
Citrate may play a critical role in cataplerosis (the export of mitochondrial intermediates into the cytosol and in the induction of fatty acid-derived signaling molecules) and glucose-regulated insulin release [Flamez, D. et al., Diabetes 51, 2018-2024 (2002)]. Because citrate was not quantified in plasma or liver, it is hard to pinpoint the actual biochemical context for the change in this metabolite. […]

[1] = system: inflammation associated with obesity and diabetes; assay: Apparent inflammation observed in the study under rosiglitazone treatment; conditions: observed in this study and also reported in the literature
Description: Serum IL-8 at baseline was higher in responders than non-responders (p=0.032) (FIG. 4C). IL-8 is an important cytokine in the inflammatory process. It is stimulated by high glucose concentrations in endothelial cells in vitro and has chemotactic activity for polymorphonuclear neutrophils (playing an important role in the pathogenesis of chronic complications of diabetes), as well as for T-lymphocyte and smooth muscle cells. Serum IL-8 level was reported to markedly increase in diabetic patients [Zozulinska, D., et al., Diabetologia 42, 117-118 (1999)]. […] Thus, it seems consistent that subjects with higher IL-8 levels were more responsive to rosiglitazone treatment.

COc1ccc(Cl)cc1C(=O)NCCc1ccc(S(=O)(=O)NC(=O)NC2CCCCC2)cc1 [Glyburide, 5-chloro-N-[2-[4-(cyclohexylcarbamoylsulfamoyl)phenyl]ethyl]-2-methoxy-benzamide]
Fractions of responders in each treatment after eight weeks of treatment (male subjects with T2DM): 0.60

CN(C)C(=N)N=C(N)N [Metformin]
Fractions of responders in each treatment after eight weeks of treatment (male subjects with T2DM): 0.53

CN(CCOc1ccc(CC2SC(=O)NC2=O)cc1)c1ccccn1 (stereo not drawn) [Rosiglitazone, 5-[[4-[2-(methyl-pyridin-2-yl-amino)ethoxy]phenyl]methyl]thiazolidine-2,4-dione]
change in level of urine citrate after 8 week treatment, non-responder subjects (urine citrate; non-responders (n=12)): did not change | change in level of urine citrate after 8 week treatment, responder group (urine citrate; responders (n=9)): did increase urine citrate (not statistically significant) | Fractions of responders in each treatment after eight weeks of treatment (male subjects with T2DM): 0.43 | effect of treatment on apparent inflammation [1]: reduce apparent inflammation
